What all share (type): functional, cell-based
Experiment [1] has as its target Melanocyte-stimulating hormone receptor (Mus musculus) (UniProt Q01727). The experiment in a line: Agonist activity at mouse melanocortin receptor 1 expressed in HEK293 cells assessed as stimulation of cAMP accumulation at 100 uM incubated for 2 hrs by cAMP AlphaScreen assay relative to control.
Experiment [2] has as its target Melanocortin receptor 3 (Mus musculus, UniProt P33033). The experiment in a line: Agonist activity at mouse melanocortin receptor 3 expressed in HEK293 cells assessed as stimulation of cAMP accumulation incubated for 2 hrs by cAMP Alpha-screen assay. On the technique in general: Cyclic AMP is a second messenger, typically raised through Gs and lowered through Gi signalling.

Experiment [3] deals with Melanocortin receptor 4 (Mus musculus, UniProt P56450). The experiment in a line: Agonist activity at mouse melanocortin receptor 4 expressed in HEK293 cells assessed as stimulation of cAMP accumulation incubated for 2 hrs by cAMP Alpha-screen assay.
The target of experiment [4] is Melanocortin receptor 5 (Mus musculus) (UniProt P41149). The experiment in a line: Agonist activity at mouse melanocortin receptor 5 expressed in HEK293 cells assessed as stimulation of cAMP accumulation at 100 uM incubated for 2 hrs by cAMP Alpha-screen assay relative to control.
For experiment [5], the target named is T1, Melanocyte-stimulating hormone receptor (Mus musculus, UniProt Q01727). Put plainly: Agonist activity at mouse melanocortin receptor 1 expressed in HEK293 cells assessed as stimulation of cAMP accumulation incubated for 2 hrs by cAMP AlphaScreen assay.
In experiment [6] the target is Melanocortin receptor 3 (Mus musculus) (UniProt P33033). The experiment in a line: Partial agonist activity at mouse melanocortin receptor 3 expressed in HEK293 cells assessed as stimulation of cAMP accumulation incubated for 2 hrs by cAMP Alpha-screen assay relative to NDP-MSH.
Experiment [7] deals with Melanocortin receptor 4 (Mus musculus) (UniProt P56450). Put plainly: Partial agonist activity at mouse melanocortin receptor 4 expressed in HEK293 cells assessed as stimulation of cAMP accumulation incubated for 2 hrs by cAMP Alpha-screen assay relative to NDP-MSH.
The target in experiment [8] is Melanocortin receptor 5 (Mus musculus, UniProt P41149). The experiment in a line: Agonist activity at mouse melanocortin receptor 5 expressed in HEK293 cells assessed as stimulation of cAMP accumulation incubated for 2 hrs by cAMP Alpha-screen assay.
For experiment [9], the target named is Melanocortin receptor 4 (Mus musculus) (UniProt P56450). The experiment in a line: Agonist activity at mouse melanocortin receptor 4 expressed in HEK293 cells assessed as fold decrease in potency of stimulation of cAMP accumulation incubated for 2 hrs by cAMP Alpha-screen assay relative to Ac-His-DPhe-Arg-Trp-NH2.
For experiment [10], the target named is Melanocortin receptor 3 (Mus musculus) (UniProt P33033). Put plainly: Agonist activity at mouse melanocortin receptor 3 expressed in HEK293 cells assessed as stimulation of cAMP accumulation at 100 uM incubated for 2 hrs by cAMP Alpha-screen assay relative to control.
Experiment [11] addresses Melanocortin receptor 5 (Mus musculus) (UniProt P41149). The experiment in a line: Partial agonist activity at mouse melanocortin receptor 5 expressed in HEK293 cells assessed as stimulation of cAMP accumulation incubated for 2 hrs by cAMP Alpha-screen assay relative to NDP-MSH.
For experiment [12], the target named is Melanocortin receptor 4 (Mus musculus) (UniProt P56450). The experiment in a line: Agonist activity at mouse melanocortin receptor 4 expressed in HEK293 cells assessed as fold decrease in potency of stimulation of cAMP accumulation incubated for 2 hrs by cAMP Alpha-screen assay.
For experiment [13], the target named is Melanocyte-stimulating hormone receptor (Mus musculus) (UniProt Q01727). Put plainly: Agonist activity at mouse melanocortin receptor 1 expressed in HEK293 cells assessed as fold decrease in potency of stimulation of cAMP accumulation incubated for 2 hrs by cAMP AlphaScreen assay.
In experiment [14] the target is T1, Melanocyte-stimulating hormone receptor. The experiment in a line: Agonist activity at mouse melanocortin receptor 1 expressed in HEK293 cells assessed as stimulation of cAMP accumulation incubated for 6 hrs by beta-galactosidase cAMP assay.

Non-standard residues stand in square brackets, D forms with d. Residues, ends and D or L forms follow the SMILES beside them.

T1 sequence (Q01727 whole entry): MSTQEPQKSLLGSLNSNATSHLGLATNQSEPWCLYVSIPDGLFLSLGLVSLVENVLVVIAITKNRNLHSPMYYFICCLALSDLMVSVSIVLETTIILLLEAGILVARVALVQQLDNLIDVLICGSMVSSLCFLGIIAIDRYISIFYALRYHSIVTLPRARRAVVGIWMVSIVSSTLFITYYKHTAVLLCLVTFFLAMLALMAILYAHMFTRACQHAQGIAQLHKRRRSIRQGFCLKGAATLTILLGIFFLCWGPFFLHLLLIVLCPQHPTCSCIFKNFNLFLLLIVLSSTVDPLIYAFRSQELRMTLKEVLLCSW
Chain of Melanocortin receptor 4 (Mus musculus) (P56450 whole entry): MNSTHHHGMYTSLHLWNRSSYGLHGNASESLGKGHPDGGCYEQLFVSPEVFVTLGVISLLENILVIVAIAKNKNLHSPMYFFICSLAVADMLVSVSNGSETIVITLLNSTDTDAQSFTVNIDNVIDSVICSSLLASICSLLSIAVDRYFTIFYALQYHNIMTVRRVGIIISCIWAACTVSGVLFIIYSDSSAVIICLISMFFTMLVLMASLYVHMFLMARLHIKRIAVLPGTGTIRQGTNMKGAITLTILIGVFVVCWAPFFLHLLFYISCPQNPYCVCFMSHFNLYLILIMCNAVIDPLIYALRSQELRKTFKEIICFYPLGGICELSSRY
Chain of Melanocortin receptor 4 (P56450 whole entry): as above
Chain of Melanocortin receptor 3 (P33033 whole entry): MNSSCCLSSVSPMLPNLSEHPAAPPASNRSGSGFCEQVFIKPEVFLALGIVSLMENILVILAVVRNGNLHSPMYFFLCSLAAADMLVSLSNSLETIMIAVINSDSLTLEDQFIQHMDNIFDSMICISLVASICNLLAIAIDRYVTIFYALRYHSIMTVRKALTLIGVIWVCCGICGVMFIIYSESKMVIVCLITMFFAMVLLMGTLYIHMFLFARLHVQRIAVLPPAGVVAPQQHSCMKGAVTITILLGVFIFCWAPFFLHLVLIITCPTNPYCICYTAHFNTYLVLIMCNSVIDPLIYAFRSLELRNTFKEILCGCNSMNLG
Chain of Melanocortin receptor 3 (Mus musculus) (P33033 whole entry): as above
Chain of Melanocortin receptor 5 (Mus musculus) (P41149 whole entry): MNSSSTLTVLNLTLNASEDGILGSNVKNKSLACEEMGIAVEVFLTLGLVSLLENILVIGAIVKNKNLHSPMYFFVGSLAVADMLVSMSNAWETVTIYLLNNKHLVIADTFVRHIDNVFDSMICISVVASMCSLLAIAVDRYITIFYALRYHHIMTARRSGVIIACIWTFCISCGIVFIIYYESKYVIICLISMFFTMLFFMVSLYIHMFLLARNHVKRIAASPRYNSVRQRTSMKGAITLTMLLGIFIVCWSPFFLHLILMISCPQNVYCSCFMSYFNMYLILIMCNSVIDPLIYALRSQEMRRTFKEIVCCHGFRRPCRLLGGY
Chain of Melanocortin receptor 5 (P41149 whole entry): as above
Chain of Melanocyte-stimulating hormone receptor (Mus musculus) (Q01727 whole entry, looked up): as the sequence (Q01727 whole entry) above

For `CC(=O)N[C@@H](Cc1cnc[nH]1)C(=O)N[C@@H](CC(C)C)C(=O)N[C@@H](CCCNC(=N)N)C(=O)N[C@@H](Cc1c[nH]c2ccccc12)C(N)=O` (Ac-HLRW-NH2), the Emax in experiment [1] and in experiment [4] was 25% throughout. The EC50 in experiment [2] and in experiment [3] was above 100 µM throughout.

Regarding `CC(=O)N[C@@H](Cc1cnc[nH]1)C(=O)N[C@H](Cc1ccccc1)C(=O)N[C@@H](CCCNC(=N)N)C(=O)N[C@@H](CCCNC(=N)N)C(N)=O`, the half-maximal effective concentration (EC50) (usually the concentration at which the effect is half-maximal) is 0.9 µM in experiment [5], above 100 µM in experiment [2] and above 100 µM in [3]. Further, in [4], the Emax (usually the greatest response seen or fitted, relative to the assay's reference) amounted to 20%.

As to `CC(=O)N[C@@H](CCC(N)=O)C(=O)N[C@H](Cc1ccccc1)C(=O)N[C@@H](CCCNC(=N)N)C(=O)N[C@@H](Cc1c[nH]c2ccccc12)C(N)=O`, the EC50 in experiment [5] turned out to be 1.6 µM; in [2], 1.3 µM; in [3], 0.27 µM; in [8], 0.27 µM. Moreover, the Emax in experiment [6] and in [7] was 80% in each case. In experiment [9], the fold change (FC) amounted to 10.

As for `CC(=O)N[C@@H](Cc1cnc[nH]1)C(=O)N[C@H](Cc1ccccc1)C(=O)N[C@@H](CCCNC(=N)N)C(=O)N[C@@H](CO)C(N)=O`, the EC50 was 1.6 µM in experiment [5] and above 100 µM in experiment [3]. In addition, the maximal effect (Emax) in [10] stood at 50%; in [4], 75%.

Take `CC(=O)N[C@@H](Cc1cnc[nH]1)C(=O)N[C@H](Cc1ccccc1)C(=O)N[C@@H](CCCNC(=N)N)C(=O)N[C@@H](Cc1c[nH]c2ccccc12)C(N)=O`: the maximum response (Emax) in experiment [10] is 30%.

`CC(=O)N[C@@H](Cc1cnc[nH]1)C(=O)N[C@H](Cc1ccccc1)C(=O)N[C@@H](Cc1cnc[nH]1)C(=O)N[C@@H](Cc1c[nH]c2ccccc12)C(N)=O`: the concentration for a half-maximal effect (EC50) in [5] turned out to be 1.3 µM; in [2], 4 µM; in [3], 0.5 µM; in experiment [8], 0.3 µM. Also, the maximum response (Emax) in experiment [6] was found to be 85%.

As for `CC(=O)N[C@@H](Cc1cnc[nH]1)C(=O)N[C@H](Cc1ccccc1)C(=O)N[C@@H](CCCN=C(N)N)C(=O)N[C@@H](Cc1c[nH]c2ccccc12)C(N)=O`, the EC50 is 0.021 µM in [3] and 0.011 µM in experiment [8].

Turning to `CC(=O)N[C@@H](Cc1cnc[nH]1)C(=O)N[C@H](Cc1ccccc1)C(=O)N[C@@H](CCCNC(=N)N)C(=O)NCC(N)=O`, the EC50 in experiment [5] was 1.3 µM; in [2] it was above 100 µM; in experiment [3] it was above 100 µM; in [8] it was above 100 µM.

As to `CC(=O)N[C@@H](Cc1ccc(O)cc1)C(=O)N[C@H](Cc1ccccc1)C(=O)N[C@@H](CCCNC(=N)N)C(=O)N[C@@H](Cc1c[nH]c2ccccc12)C(N)=O` (Ac-Y[dF]RW-NH2), the 50% effective concentration (EC50) in [5] worked out at 1.2 µM; in experiment [2], 3 µM; in experiment [3] it was 0.09 µM; in experiment [8], 0.4 µM. Further, the maximal response (Emax) worked out at 50% in experiment [6], 65% in [7] and 80% in [11].

`CC(=O)N[C@@H](Cc1cnc[nH]1)C(=O)N[C@H](Cc1ccccc1)C(=O)N[C@@H](CS)C(=O)N[C@@H](Cc1c[nH]c2ccccc12)C(N)=O`: the concentration giving a half-maximal response (EC50) in [5] was determined as 0.4 µM; in experiment [2], 6 µM; in [3], 3.1 µM; in experiment [8], 1.7 µM. In addition, the Emax in experiment [6] came to 85%. Further, the fold change (FC) in experiment [12] was 140; in experiment [13], 25.

In the case of `CC(=O)N[C@@H](Cc1cnc[nH]1)C(=O)N[C@H](C(=O)N[C@@H](CCCNC(=N)N)C(=O)N[C@@H](Cc1c[nH]c2ccccc12)C(N)=O)C(C)C` (Ac-HVRW-NH2), the EC50 in [5], in experiment [2], in experiment [3] and in experiment [8] was above 100 µM in each case.

Regarding `CC(=O)N[C@@H](Cc1cnc[nH]1)C(=O)N[C@H](Cc1ccccc1)C(=O)N[C@@H](CC(C)C)C(=O)N[C@@H](Cc1c[nH]c2ccccc12)C(N)=O`, the concentration for a half-maximal effect (EC50) in [5] was 0.09 µM; in [3], 3.8 µM; in experiment [8], 2 µM. For the same compound, the Emax in experiment [10] amounted to 25%; in [7] it was 85%.

Take `CC(=O)N1CCC[C@H]1C(=O)N[C@H](Cc1ccccc1)C(=O)N[C@@H](CCCN=C(N)N)C(=O)N[C@@H](Cc1c[nH]c2ccccc12)C(N)=O` (Ac-P[dF]RW-NH2): the EC50 in experiment [14] was 4 µM; in experiment [5], 2.1 µM; in experiment [3], 1 µM; in [8] it was 2 µM. The Emax amounted to 60% in experiment [7] and 80% in experiment [11].

With `CC(=O)N[C@@H](Cc1cnc[nH]1)C(=O)N[C@H](Cc1ccccc1)C(=O)N[C@@H](CCCNC(=N)N)C(=O)N[C@@H](CC(C)C)C(N)=O`, the EC50 in [5] is 1.6 µM; in experiment [3] it was above 100 µM. In addition, the figures for the maximal response (Emax) in experiment [10] and in [4] were 20% and 40%, respectively.

`CC(=O)N[C@@H](Cc1c[nH]cn1)C(=O)N[C@@H](Cc1ccccc1)C(=O)N[C@@H](CCCN=C(N)N)C(=O)N[C@@H](Cc1c[nH]c2ccccc12)C(N)=O`: the EC50 in [8] turned out to be 0.22 µM.

These data come from ChEMBL document CHEMBL4342477, “Single Nucleotide Polymorphisms in the Melanocortin His-Phe-Arg-Trp Sequences Decrease Tetrapeptide Potency and Efficacy” (ACS Med Chem Lett, 2020).
